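How tested: cells in 96-well plates exposed to compound for 48 hours at five concentrations. TGI is the concentration that stops growth completely.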
Tests used:
Test in all cases: NCI tumour cell line growth inhibition, 48 h
[1] = tested on: SF-268 CNS
[2] = tested on: KM12 colon
[3] = tested on: RPMI-8226 leukemia
[4] = tested on: A549 NSCLC
[5] = tested on: SNB-19 CNS
[6] = tested on: MOLT-4 leukemia
[7] = tested on: A498 renal
[8] = tested on: PC-3 prostate
[9] = tested on: SK-MEL-28 melanoma
[10] = tested on: HL-60(TB) leukemia
[11] = tested on: SR leukemia
[12] = tested on: SK-MEL-5 melanoma
[13] = tested on: MDA-N
[14] = tested on: OVCAR-8 ovarian
[15] = tested on: 786-0 renal
[16] = tested on: CCRF-CEM leukemia
[17] = tested on: NCI-H460 lung
[18] = tested on: LOX IMVI melanoma
[19] = tested on: HS 578T breast
[20] = tested on: IGROV1 ovarian
[21] = tested on: SK-MEL-2 melanoma
[22] = tested on: MCF7 breast
[23] = tested on: OVCAR-5 ovarian
[24] = tested on: UACC-257 melanoma
[25] = tested on: SK-OV-3 ovarian
[26] = tested on: COLO 205 colon
[27] = tested on: MDA-MB-435
[28] = tested on: HOP-62 NSCLC
[29] = tested on: NCI/ADR-RES ovarian
[30] = tested on: T-47D breast
[31] = tested on: MDA-MB-231 breast
[32] = tested on: NCI-H23 lung
[33] = tested on: HT29 colon
[34] = tested on: NCI-H226 lung
[35] = tested on: U251 CNS
[36] = tested on: EKVX NSCLC
[37] = tested on: NCI-H522 lung
[38] = tested on: K-562 leukemia
[39] = tested on: SF-295 CNS
[40] = tested on: HCT-15 colon
[41] = tested on: DU-145 prostate
[42] = tested on: TK-10 renal
[43] = tested on: ACHN renal
[44] = tested on: SF-539 CNS
[45] = tested on: HCC-2998 colon
[46] = tested on: SNB-75 CNS
[47] = tested on: HCT-116 colon
[48] = tested on: SN12C renal
[49] = tested on: SW-620 colon
[50] = tested on: UACC-62 melanoma
[51] = tested on: UO-31 renal
[52] = tested on: MALME-3M melanoma
[53] = tested on: M14 melanoma
[54] = tested on: CAKI-1 renal
[55] = tested on: RXF 393 renal
[56] = tested on: BT-549 breast
[57] = tested on: OVCAR-4 ovarian
[58] = tested on: OVCAR-3 ovarian
[59] = tested on: HOP-92 NSCLC

Measured: TGI

c1ncn(C23C4C5C6C4C2C6C53)n1 (stereo not given)
not listed: [50] | [51] | [52] | [53] | [54] | [55] | [56] | [57] | [58] | [59]
> 100 µM: all other assays above

Cn1nc2ccc([N+](=O)[O-])c(Cn3nnc4ccccc43)c2n1
not listed: [8] | [11] | [37]
> 100 µM: all other assays above
